Four compounds from BindingDB's records for doi:10.1074/jbc.M113.507756 (University of Otago Christchurch, 2013) can be followed below.

The structures appear in SMILES notation.

One assay concerns the target Lactoperoxidase (Bos taurus, UniProt P80025). Nature of the assay: LPO/TPO Selectivity Assay. As to the method: (§1) The halogenation activities of LPO (EC 1.11.1.7) and TPO (EC 1.11.1.8) were determined using a modified method of that described previously [Ferrari et al., J. Inorg. Biochem., 68:61-69].
The target in another assay is T1, Thyroid peroxidase (Homo sapiens, UniProt P07202).
T1 sequence (P07202 whole entry): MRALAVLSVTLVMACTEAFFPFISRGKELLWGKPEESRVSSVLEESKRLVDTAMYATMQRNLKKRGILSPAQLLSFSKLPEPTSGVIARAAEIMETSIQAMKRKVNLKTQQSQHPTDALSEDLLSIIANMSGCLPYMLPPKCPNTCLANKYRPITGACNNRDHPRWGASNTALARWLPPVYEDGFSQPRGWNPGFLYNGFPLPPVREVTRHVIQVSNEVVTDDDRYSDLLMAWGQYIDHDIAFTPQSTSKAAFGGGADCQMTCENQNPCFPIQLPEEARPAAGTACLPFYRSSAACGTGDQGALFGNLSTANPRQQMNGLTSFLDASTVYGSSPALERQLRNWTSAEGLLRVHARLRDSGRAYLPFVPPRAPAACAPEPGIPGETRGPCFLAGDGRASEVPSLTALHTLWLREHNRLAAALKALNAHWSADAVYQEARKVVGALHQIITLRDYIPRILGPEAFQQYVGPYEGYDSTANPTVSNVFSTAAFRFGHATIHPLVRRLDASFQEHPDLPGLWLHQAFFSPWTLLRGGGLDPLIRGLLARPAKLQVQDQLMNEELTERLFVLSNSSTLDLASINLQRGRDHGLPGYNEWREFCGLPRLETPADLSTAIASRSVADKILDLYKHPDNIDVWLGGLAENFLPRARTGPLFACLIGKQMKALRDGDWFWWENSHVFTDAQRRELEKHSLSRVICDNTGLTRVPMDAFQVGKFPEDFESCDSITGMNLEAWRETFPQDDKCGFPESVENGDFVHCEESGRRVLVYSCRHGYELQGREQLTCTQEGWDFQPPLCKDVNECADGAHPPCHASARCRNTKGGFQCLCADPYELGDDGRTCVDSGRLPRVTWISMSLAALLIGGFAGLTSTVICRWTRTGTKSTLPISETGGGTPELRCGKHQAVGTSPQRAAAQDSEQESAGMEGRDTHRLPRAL
Nature of the assay: LPO/TPO Selectivity Assay. As to the method:
as §1

Assay [1] deals with T2, Myeloperoxidase (Homo sapiens, UniProt P05164).
T2 sequence (P05164 whole entry): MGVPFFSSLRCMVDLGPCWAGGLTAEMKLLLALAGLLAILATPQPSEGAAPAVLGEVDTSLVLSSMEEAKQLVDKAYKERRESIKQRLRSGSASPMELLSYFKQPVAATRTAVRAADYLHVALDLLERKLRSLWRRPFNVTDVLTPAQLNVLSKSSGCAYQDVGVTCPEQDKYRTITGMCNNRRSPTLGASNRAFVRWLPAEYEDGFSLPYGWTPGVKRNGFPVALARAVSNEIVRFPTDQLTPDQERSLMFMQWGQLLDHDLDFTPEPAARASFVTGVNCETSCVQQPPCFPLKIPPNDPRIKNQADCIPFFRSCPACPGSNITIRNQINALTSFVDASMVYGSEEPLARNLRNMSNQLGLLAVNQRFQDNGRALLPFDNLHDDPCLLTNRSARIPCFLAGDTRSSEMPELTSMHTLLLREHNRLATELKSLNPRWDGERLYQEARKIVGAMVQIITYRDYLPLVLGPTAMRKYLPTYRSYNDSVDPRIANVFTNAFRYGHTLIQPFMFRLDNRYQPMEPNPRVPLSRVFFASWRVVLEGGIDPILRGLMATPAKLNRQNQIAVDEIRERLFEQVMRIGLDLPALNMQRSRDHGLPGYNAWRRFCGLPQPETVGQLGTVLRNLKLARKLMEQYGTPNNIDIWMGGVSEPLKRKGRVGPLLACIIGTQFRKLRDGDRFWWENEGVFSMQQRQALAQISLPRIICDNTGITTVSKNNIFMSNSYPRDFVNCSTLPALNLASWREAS
Nature of the assay: Myeloperoxidase Assay. To be noted: pH 6.5. As to the method: Assays were performed at 22 °C with 2 nM MPO and 10 μM hydrogen peroxide (H2O2) in 20 mM NaH2PO4 buffer, pH 6.5 containing 140 mM NaCl, 10 mM taurine, and 1 mM L-tyrosine. Inhibitor compounds were preincubated with MPO for 15 min prior to the addition of H2O2, and the accumulation of taurine chloramine was determined after 1 min.

Assay [2] addresses T2, Myeloperoxidase. Nature of the assay: Surface Plasmon Resonance (SPR). To be noted: pH 5. As to the method: Binding kinetics were determined by surface plasmon resonance (SPR) using a Biacore S51 (Biacore, Uppsala, Sweden). MPO (50 μg/ml dissolved in 10 mM sodium acetate, pH 5.0) was immobilized onto the surface of CM5 sensor chips (Biacore) using surface amine coupling. One of the spots on the sensor surface was left without MPO to control for nonspecific binding. The signal observed in response to analyte binding was as expected linearly related to the amount of immobilized ligand, and 10,000 response units was routinely used to characterize compoundbinding (data not shown). Compounds were dissolved in binding buffer (10 mM HEPES, pH 7.4, 150 mM NaCl, 3 mM Na2EDTA, 0.005% (w/v) surfactant P20, 1% (v/v) DMSO final), and association was assessed during 60-210-s injections. After this time, analyte injection was terminated, and the chip surface was perfused with binding buffer at 30 μl/min for 4-12 min to monitor compound dissociation.

Broadly, the IC50 is the concentration that inhibits the measured activity by half. By Kd is commonly meant a measure of binding affinity in units of concentration. A higher Kd goes with weaker binding. As to `O=C(NO)c1ccc(Cc2ccccc2)cc1O` [4-benzyl-2-hydroxybenzenecarbohydroxamic acid (HX2)], the IC50 at Lactoperoxidase turned out to be 0.04 µM; against Thyroid peroxidase, 0.063 µM; on Myeloperoxidase [1] it was 0.0251 µM. Besides, the Kd at Myeloperoxidase [2] came out at 0.063 µM.
For the compound `O=C(NO)c1ccccc1O` [Salicylic hydroxamic acid], the 50% inhibitory concentration (IC50) at Thyroid peroxidase was 2 µM; at Myeloperoxidase [1], 25 µM.
Take `O=C(NO)c1c[nH]c(NCc2ccccc2)nc1=O` [2-(benzylamino)-6-oxo-3H-pyrimidine-5-carbohydroxamic acid (HX3)]: the IC50 against Lactoperoxidase is 2 µM; on Thyroid peroxidase, 1.59 µM; against Myeloperoxidase [1], 0.79 µM. The same compound came in with a dissociation constant Kd at Myeloperoxidase [2] of 2 µM.
Turning to `O=C(NO)c1c[nH]c(NCc2cc(C(F)(F)F)cc(C(F)(F)F)c2)nc1=O` [2-(3,5-bistrifluoromethylbenzylamino)-6-oxo-1H-pyrimidine-5-carbohydroxamic acid (HX1)], the IC50 was 6.3 µM against Lactoperoxidase and 1.59 µM on Thyroid peroxidase.
